Measurements taken from patent US20150374646A1, “TREATMENT OF CANCER AND OTHER CONDITIONS USING A TRANSCRIPTION FACTOR MODULATOR” (C & C BIOPHARMA, LLC, priority 2013, published 2015).

Tests used:
K562 cells = experiment: Subcutaneous K562 (CML) tumor growth in SCID mice (Example 6); assay type: in vivo; conditions: Imatinib 100 mg/kg p.o. × 16 days, SCID mice, K562 tumor
Method: Male Severe Combined Immunodeficiency (SCID) mice that were 4-6 weeks old were used in the experiment. The mice were fed under specific pathogen free (SPF) conditions. Food and water were available to the mice at will. A suspension of 8×10^6 chronic myelogenous leukemia K562 cells (0.2 mL) was inoculated subcutaneously into the right back of the SCID mice.
The general conditions of the mice and the growth of the transplanted tumor were monitored. […] The control group received an intraperitoneal injection (IP) of 0.2 mL solvent (20% DMSO, 80% of 20% w/v (2-hydroxypropyl)-β-cyclodextrin made in PBS). […] The YT30 treated groups received either intraperitoneal injection of 50 mg/kg/day of YT30 (0.2 mL in volume) suspended in solvent (20% DMSO, 80% of 20% w/v (2-hydroxypropyl)-β-cyclodextrin made in PBS) or oral gavage of 90 mg/kg/day YT30 in solvent (Cremophor RH40:TW80:PEG400 (2:1:1)). Frequency of the administration was once per day and the experiment lasted 16 days after initiation of the treatment.
The body weights of the mice were recorded prior to the start of treatment and twice every week thereafter. Each mouse of every group was monitored daily for any other symptoms of side effects including change in behavior, activity or posture, areas of redness and swelling, and food and water withdrawal. Caliper measurements of the longest perpendicular tumor diameters were performed every 2 days to estimate the tumor volume; the following formula: 4π/3×(width/2)^2×(length/2) was used to calculate the three-dimensional volume of an ellipse. The tumor inhibition rate was calculated according to tumor volume: Tumor inhibition rate by size (%)=(Tumor volume of the control group−Tumor volume of the treated group)/Tumor volume of the control group×100. The SCID mice were euthanized 2 hours after the final injection and the subcutaneous tumor nodules were taken out intact and weighed. The tumor inhibition rate was calculated again according to tumor weight: Tumor inhibition rate by weight (%)=(Tumor weight of the control group−Tumor weight of the treated group)/Tumor weight of the control group×100.

MV4-11 cells = experiment: Subcutaneous MV4-11 leukemia tumor growth in NOD/SCID mice (Example 5); assay type: in vivo; conditions: 100 mg/kg p.o. × 27 days
Method: Female Nonobese Diabetic/Severe Combined Immunodeficiency (NOD/SCID) mice that were 4-6 weeks old were used in the experiment. The mice were fed under specific pathogen free (SPF) conditions. Food and water were available to the mice at will. A suspension of 1×10^7 cells per mouse B-myelomonocytic leukemia MV4-11 cells (0.2 mL) in logarithmic phase were inoculated subcutaneously into the right back of the NOD/SCID nude mice.
The general conditions of the mice and the growth of the transplanted tumor were monitored. […] The control group received an intraperitoneal (IP) injection of 0.2 mL of solvent (20% DMSO, 80% of 20% w/v (2-hydroxypropyl)-β-cyclodextrin made in PBS). […] The high dosage group received an intraperitoneal injection of 50 mg/kg/day of YT30 (0.2 mL in volume) suspended in solvent (20% DMSO, 80% of 20% w/v (2-hydroxypropyl)-β-cyclodextrin made in PBS), while the low dosage group received IP injection of 25 mg/kg/day YT30 (0.2 mL in volume). Frequency of the administration was once per day and the experiment lasted 27 days after treatment started.
The body weights of the mice were recorded prior to the start of treatment and twice every week thereafter. Each mouse of every group was monitored daily for any other symptoms of side effects including change in behavior, activity or posture, areas of redness and swelling, and food and water withdrawal. Caliper measurements of the longest perpendicular tumor diameters were performed every 2 days to estimate the tumor volume; the following formula: 4π/3×(width/2)^2×(length/2) was used to calculate the three-dimensional volume of an ellipse. The tumor inhibition rate was calculated according to tumor volume: Tumor inhibition rate by size (%)=(Tumor volume of the control group−Tumor volume of the treated group)/Tumor volume of the control group×100. The mice were euthanized on the next day after the final injection and the subcutaneous tumor nodules were taken out intact and weighed. The tumor inhibition rate was calculated again according to tumor weight: Tumor inhibition rate by weight (%)=(Tumor weight of the control group−Tumor weight of the treated group)/Tumor weight of the control group×100).

Nalm-6 = experiment: cells; conditions: Homo sapiens, NALM-6, 72 h, read-out: 72 hr growth inhibition (%)
Method: Various human leukemia cells were grown to the logarithmic growth phase and seeded into 24-well plates. […] Treated cells were further incubated for 72 hours and then were examined for cell proliferation. Cell proliferation was determined using the CellTiter-Glo Luminescence Cell Viability assay (Promega Corporation, Madison, Wis.) according to the manufacturer's protocol. The calculated inhibition rate was determined with the following formula: Inhibition rate (%)=(1−Luminescence of experimental group/Luminescence of control group)×100. IC50 is the calculated concentration of a compound needed to inhibit half of the maximum cell growth (equivalent to cell growth in control group) based on the corresponding dose-response curve under the described experimental conditions.
Growth inhibition experiments were performed as previously described.

SF-539 = experiment: Cancer cell line growth inhibition, CellTiter-Glo (Example 3); assay type: cell-based; conditions: Homo sapiens, CNS, 72 hours, read-out: growth inhibition of various human cancer cell lines
Method: (§1) YT30 was tested for growth inhibition against 67 human cancer cell lines derived from diverse tissues including the National Cancer Institute human cancer cell lines (NCI-60). […] Cells in different wells were treated with various concentrations of YT30, YT86, YT88, or YT128. […] Cell viabilities were determined by the CellTiter-Glo Luminescence Cell Viability assay kit (Promega Corporation, Madison, Wis.) according to manufacturer's protocol.

OVCAR-4 = experiment: as above; assay type: cell-based; conditions: Homo sapiens, Ovarian, 72 hours, read-out: growth inhibition of various human cancer cell lines
Method: as §1

786-0 = experiment: as above; assay type: cell-based; conditions: Homo sapiens, Renal, 72 hours, read-out: growth inhibition of various human cancer cell lines
Method: as §1

U251 = experiment: as above; assay type: cell-based; conditions: Homo sapiens, U-251, CNS, 72 hours, read-out: growth inhibition of various human cancer cell lines
Method: as §1

HeLa = experiment: as above; assay type: cell-based; conditions: Homo sapiens, Cervical, 72 hours, read-out: growth inhibition of various human cancer cell lines
Method: as §1

MCF7 = experiment: as above; assay type: cell-based; conditions: Homo sapiens, Breast, MCF-7, 72 hours, read-out: growth inhibition of various human cancer cell lines
Method: as §1

MDA-MB-468 = experiment: as above; assay type: cell-based; conditions: Homo sapiens, Breast, 72 hours, read-out: growth inhibition of various human cancer cell lines
Method: as §1

MOLT-4 = experiment: as above; assay type: cell-based; conditions: Homo sapiens, Leukemia, 72 hours, read-out: growth inhibition of various human cancer cell lines
Method: as §1

T-47D = experiment: as above; assay type: cell-based; conditions: Homo sapiens, T47D, Breast, 72 hours, read-out: growth inhibition of various human cancer cell lines
Method: as §1

SN12C = experiment: as above; assay type: cell-based; conditions: Homo sapiens, Renal, 72 hours, read-out: growth inhibition of various human cancer cell lines
Method: as §1

SNB-19 = experiment: as above; assay type: cell-based; conditions: Homo sapiens, CNS, 72 hours, read-out: growth inhibition of various human cancer cell lines
Method: as §1

HS 578T = experiment: as above; assay type: cell-based; conditions: Homo sapiens, Breast, 72 hours, read-out: growth inhibition of various human cancer cell lines
Method: as §1

HL60 = experiment: as above; assay type: cell-based; conditions: Homo sapiens, HL-60, Leukemia, 72 hours, read-out: growth inhibition of various human cancer cell lines
Method: as §1

Caski = experiment: as above; assay type: cell-based; conditions: Homo sapiens, Ca-Ski, Cervical, 72 hours, read-out: growth inhibition of various human cancer cell lines
Method: as §1

SF-268 = experiment: as above; assay type: cell-based; conditions: Homo sapiens, CNS, 72 hours, read-out: growth inhibition of various human cancer cell lines
Method: as §1

K562 = experiment: as above; assay type: cell-based; conditions: Homo sapiens, Leukemia, 72 hours, read-out: growth inhibition of various human cancer cell lines
Method: as §1

CCRF-CEM = experiment: as above; assay type: cell-based; conditions: Homo sapiens, Leukemia, 72 hours, read-out: growth inhibition of various human cancer cell lines
Method: as §1

NCI/ADR-RES = experiment: as above; assay type: cell-based; conditions: Homo sapiens, Breast, 72 hours, read-out: growth inhibition of various human cancer cell lines
Method: as §1

SF-295 = experiment: as above; assay type: cell-based; conditions: Homo sapiens, CNS, 72 hours, read-out: growth inhibition of various human cancer cell lines
Method: as §1

siHa = experiment: as above; assay type: cell-based; conditions: Homo sapiens, Cervical, 72 hours, read-out: growth inhibition of various human cancer cell lines
Method: as §1

BT-549 = experiment: as above; assay type: cell-based; conditions: Homo sapiens, Breast, 72 hours, read-out: growth inhibition of various human cancer cell lines
Method: as §1

SR = experiment: as above; assay type: cell-based; conditions: Homo sapiens, Leukemia, 72 hours, read-out: growth inhibition of various human cancer cell lines
Method: as §1

OVCAR-3 = experiment: as above; assay type: cell-based; conditions: Homo sapiens, Ovarian, 72 hours, read-out: growth inhibition of various human cancer cell lines
Method: as §1

UO-31 = experiment: as above; assay type: cell-based; conditions: Homo sapiens, Renal, 72 hours, read-out: growth inhibition of various human cancer cell lines
Method: as §1

MDA-MB231 = experiment: as above; assay type: cell-based; conditions: Homo sapiens; Breast, MDA-MB-231; 72 hours; read-out: growth inhibition of various human cancer cell lines
Method: as §1

A498 = experiment: as above; assay type: cell-based; conditions: Homo sapiens, Renal, 72 hours, read-out: growth inhibition of various human cancer cell lines
Method: as §1

A549 = experiment: as above; assay type: cell-based; conditions: Homo sapiens, Lung, 72 hours, read-out: growth inhibition of various human cancer cell lines
Method: as §1

OVCAR-5 = experiment: as above; assay type: cell-based; conditions: Homo sapiens, Ovarian, 72 hours, read-out: growth inhibition of various human cancer cell lines
Method: as §1

MDA-MB-435 = experiment: as above; assay type: cell-based; conditions: Homo sapiens, Breast, 72 hours, read-out: growth inhibition of various human cancer cell lines
Method: as §1

TK-10 = experiment: as above; assay type: cell-based; conditions: Homo sapiens, Renal, 72 hours, read-out: growth inhibition of various human cancer cell lines
Method: as §1

SMILES | IC50 (SF-539) [µM] | IC50 (OVCAR-4) [µM] | IC50 (U251) [µM] | IC50 (HeLa) [µM] | IC50 (MCF7) [µM] | IC50 (MDA-MB-468) [µM] | IC50 (MOLT-4) [µM] | IC50 (T-47D) [µM] | IC50 (SN12C) [µM] | IC50 (SNB-19) [µM] | IC50 (HS 578T) [µM] | IC50 (HL60) [µM] | IC50 (Caski) [µM] | IC50 (SF-268) [µM] | IC50 (K562) [µM] | IC50 (CCRF-CEM) [µM] | IC50 (SF-295) [µM] | IC50 (siHa) [µM] | IC50 (BT-549) [µM] | IC50 (SR) [µM] | also measured
Cc1ccc(NC(=O)c2ccc(CN3CCN(C)CC3)cc2)cc1Nc1nccc(-c2cccnc2)n1 [Imatinib, imatinib, reference compound] | – | – | – | – | – | – | – | – | – | – | – | – | – | – | – | – | – | – | – | – | Body weight change (K562 cells): −3.26%; Tumor growth inhibition by size (K562 cells): 43.97%; Tumor growth inhibition by weight (K562 cells): 27.91%; Average body weight, End point (K562 cells; end point, x ± s): 18.37 ± 0.54 g; Average body weight, Initial (K562 cells; initial (before treatment), x ± s): 18.99 ± 1.23 g; Tumor size (K562 cells; x ± s): 1744.05 ± 1049.95 mm^3; Average body weight (g, x ± s) End point (MV4-11 cells): 22.06 ± 1.74 g; Body weight change (%) (MV4-11 cells): −1.0%; Tumor growth Inhibition by size (%) (MV4-11 cells): 52.5%; Tumor growth Inhibition by weight (%) (MV4-11 cells): 41.7%; Tumor size (mm^3) (MV4-11 cells): 1040.51 ± 422.38 mm^3; Tumor weight (g, x ± s) (MV4-11 cells): 1.29 ± 0.42 g; inhibition at 5 µM (Nalm-6): 0%; inhibition at 10 µM (Nalm-6): 44%
Nc1ccccc1NC(=O)CCCCCCNC(=O)c1cc2ccccc2[nH]1 [YT128] | 7.61 | 13.6 | 5 | 6.58 | 8.52 | 11.2 | 5.08 | 12.6 | 7.11 | 13.8 | 8.39 | 5.86 | 10.9 | 13.4 | 5.03 | 4.24 | 8.61 | 9.7 | 9.14 | 5.96 | IC50 (786-0): 9.47 µM; IC50 (NCI/ADR-RES): 14.6 µM; IC50 (OVCAR-3): 6.91 µM; IC50 (UO-31): 6.58 µM; IC50 (MDA-MB231): 6.75 µM; IC50 (A498): 7.46 µM; IC50 (A549): 12.8 µM; IC50 (OVCAR-5): 6.87 µM; IC50 (MDA-MB-435): 9.74 µM; IC50 (TK-10): 12.1 µM
Nc1ccccc1NC(=O)CCCCCNC(=O)c1cc2ccccc2[nH]1 [YT86] | 7.76 | 14.3 | 4.47 | 6.74 | 5.86 | 7.04 | 3.09 | 12.5 | 8 | 14.2 | 8.85 | 4.81 | 11.3 | 14.9 | 5.64 | 3.17 | 7.41 | 8.78 | 13.5 | 6.4 | IC50 (OVCAR-3): 7.2 µM; IC50 (UO-31): 7.51 µM; IC50 (MDA-MB231): 5.81 µM; IC50 (A498): 9.55 µM; IC50 (A549): 10.9 µM; IC50 (OVCAR-5): 5.99 µM; IC50 (MDA-MB-435): 8.31 µM; IC50 (TK-10): 17.2 µM
